A short description of data set [1]: Single dose oral pharmacokinetic study. The class given is in vivo. The settings on record: mouse, Mice oral PK @30 mg/kg, plasma, vehicle 10% Solutol+20% PEG; for AUC(0-t): read-out: AUC0-t; for Cmax: read-out: Cmax. On the procedure:
The test item was administered through oral route to animals (rat/mice) at 30 mg/kg dose in a suitable vehicle (10% Solutol+20% PEG) at 10 ml/kg dose volume. Blood samples (˜50 μL at each time point) were collected from retro-orbital plexus using K3 EDTA as anticoagulant in eppendorf tubes at defined time intervals 30 minutes, 1 hour, 2 hour, 4 hour, 8 hour, 24 hour & 48 hour under light ether anaesthesia. The samples were centrifuged at 3500×g to separate plasma and stored at −80° C. until analysis. Plasma 25 μl for Mice were processed as per described in sample preparation.
Standard solutions of the test compound 1 mg/mL solutions were prepared in DMSO and further dilutions were made in methanol. […] To the test compound plasma extraction was carried out using Acetonitrile precipitation. After reconstitution with solvent (50% Acetonitrile in Buffer) samples were analyzed by LCMSMS to get the concentrations to calculate PK Parameters.

Data set [2] can be described thus: Cyto-toxicity (MTT assay). The class given is cell-based. A general note: Tetrazolium dyes change colour on reduction, which living cells bring about.

In general, Cmax refers to the maximum level reached in the sampled fluid or tissue. As usually defined, the viability is a per cent measure of how many cells are alive, often set against a control. Read a low viability as a greater loss of cells.

For `CC(C)C1=C2[C@H]3CC[C@@H]4[C@@]5(C)CC[C@H](OC(=O)[C@H]6C[C@@H](C(=O)O)C6(C)C)C(C)(C)[C@@H]5CC[C@@]4(C)[C@]3(C)CC[C@@]2(NC(=O)C(C)(C)NC(=O)C2(c3ccc(Cl)cc3)CC2)CC1=O` [Example 2, (1R,3S)-3-((((3aR,5aR,5bR,7aR,9S,11aR,11bR,13aS)-3a-(2-(1-(4-chlorophenyl)cyclopropane-1-carboxamido)-2-methylpropanamido)-1-isopropyl-5a,5b,8,8, 11a-pentamethyl-2-oxo-3,3a,4,5,5a,5b,6,7,7a,8,9,10,11,11a,11b,12,13,13a-octadecahydro-2H-cyclopenta[a]chrysen-9-yl)oxy)carbonyl)-2,2-dimethylcyclobutane-1-carboxylic acid], in data set [1], the AUC(0-t) is 166 µg·h/mL and the Cmax is 13200 ng/mL. Besides, in data set [2], the viability at 4 days, 0.01 µM turned out to be 42%; the viability at 4 days, 0.1 µM was found to be 9%; the viability at 4 days, 1 µM came to 8%.

On to `CC(C)C1=C2[C@H]3CC[C@@H]4[C@@]5(C)CC[C@H](OC(=O)[C@H]6C[C@@H](C(=O)O)C6(C)C)C(C)(C)[C@@H]5CC[C@@]4(C)[C@]3(C)CC[C@@]2(NC(=O)C(C)(C)NC(=O)c2ccccc2)CC1=O` [Example 3, (1R,3S)-3-((((3aR,5aR,5bR,7aR,9S,11aR,11bR,13aS)-3a-(2-benzamido-2-methylpropanamido)-1-isopropyl-5a,5b,8,8,11a-pentamethyl-2-oxo-3,3a,4,5,5a, 5b,6,7,7a,8,9,10,11,11a,11b,12,13,13a-octadecahydro-2H-cyclopenta[a]chrysen-9-yl)oxy)carbonyl)-2,2-dimethylcyclobutane-1-carboxylic acid], for which, in data set [1], the AUC(0-t) was 545 µg·h/mL and the Cmax worked out at 29600 ng/mL. In data set [2], the viability at 4 days, 0.01 µM was 32%; the viability at 4 days, 0.1 µM came out at 13%; the viability at 4 days, 1 µM was found to be 7%.

With `CC(C)C1=C2[C@H]3CC[C@@H]4[C@@]5(C)CC[C@H](OC(=O)[C@H]6C[C@@H](C(=O)O)C6(C)C)C(C)(C)[C@@H]5CC[C@@]4(C)[C@]3(C)CC[C@@]2(NC(=O)C(C)(C)NC(=O)c2ccc(Cl)c(Cl)c2)CC1=O` [Example 4, (1R,3S)-3-((((3aR,5aR,5bR,7aR,9S,11aR,11bR,13aS)-3a-(2-(3,4-dichlorobenzamido)-2-methylpropanamido)-1-isopropyl-5a,5b,8,8,11a-pentamethyl-2-oxo-3,3a,4,5,5a,5b,6,7,7a,8,9,10,11,11a,11b,12,13,13a-octadecahydro-2H-cyclopenta[a]chrysen-9-yl)oxy)carbonyl)-2,2-dimethylcyclobutane-1-carboxylic acid], in data set [1], the AUC(0-t) turned out to be 185 µg·h/mL and the Cmax stood at 8840 ng/mL. In data set [2], this molecule returned a viability at 4 days, 0.01 µM of 20%; a viability at 4 days, 0.1 µM of 12%; a viability at 4 days, 1 µM of 9%.

Turning to `CC(C)C1=C2[C@H]3CC[C@@H]4[C@@]5(C)CC[C@H](OC(=O)[C@H]6C[C@@H](C(=O)O)C6(C)C)C(C)(C)[C@@H]5CC[C@@]4(C)[C@]3(C)CC[C@@]2(NC(=O)C(C)(C)NC(=O)c2cnccn2)CC1=O` [Example 5, (1R,3S)-3-((((3aR,5aR,5bR,7aR,9S,11aR,11bR,13aS)-1-isopropyl-5a,5b,8,8,11a-pentamethyl-3a-(2-methyl-2-(pyrazine-2-carboxamido)propanamido)-2-oxo-3,3a,4,5,5a,5b,6,7,7a,8,9,10,11,11a,11b,12,13,13a-octadecahydro-2H-cyclopenta[a]chrysen-9-yl)oxy)carbonyl)-2,2-dimethylcyclobutane-1-carboxylic acid], in data set [1], the AUC(0-t) worked out at 289 µg·h/mL and the peak concentration (Cmax) came to 26000 ng/mL. Also, in data set [2], the viability at 4 days, 0.01 µM is 74%; the viability at 4 days, 0.1 µM was determined as 35%; the viability at 4 days, 1 µM is 4%.

In the case of `CC(C)C1=C2[C@H]3CC[C@@H]4[C@@]5(C)CC[C@H](OC(=O)[C@H]6C[C@@H](C(=O)O)C6(C)C)C(C)(C)[C@@H]5CC[C@@]4(C)[C@]3(C)CC[C@@]2(NC(=O)C(C)(C)NC(=O)c2ccc(N)nc2)CC1=O` [Example 6, (1R,3S)-3-((((3aR,5aR,5bR,7aR,9S,11aR,11bR,13aS)-3a-(2-(6-aminonicotinamido)-2-methylpropanamido)-1-isopropyl-5a,5b,8,8,11a-pentamethyl-2-oxo-3,3a,4,5,5a,5b,6,7,7a,8,9,10,11,11a,11b,12,13,13a-octadecahydro-2H-cyclopenta[a]chrysen-9-yl)oxy)carbonyl)-2,2-dimethylcyclobutane-1-carboxylic acid], in data set [1], the AUC(0-t) came to 100 µg·h/mL and the Cmax is 11100 ng/mL. For the same molecule, in data set [2], the viability at 4 days, 0.01 µM was 60%; the viability at 4 days, 0.1 µM is 19%; the viability at 4 days, 1 µM is 4%.

As to `Cc1cnc(C(=O)NC(C)(C)C(=O)N[C@@]23CC[C@]4(C)[C@H](CC[C@@H]5[C@@]6(C)CC[C@H](OC(=O)[C@H]7C[C@@H](C(=O)O)C7(C)C)C(C)(C)[C@@H]6CC[C@]54C)C2=C(C(C)C)C(=O)C3)cn1` [Example 7, (1R,3S)-3-((((3aR,5aR,5bR,7aR,9S,11aR,11bR,13aS)-1-isopropyl-5a,5b,8,8,11a-pentamethyl-3a-(2-methyl-2-(5-methylpyrazine-2-carboxamido)propanamido)-2-oxo-3,3a,4,5,5a,5b,6,7,7a,8,9,10,11,11a,11b,12,13,13a-octadecahydro-2H-cyclopenta[a]chrysen-9-yl)oxy)carbonyl)-2,2-dimethylcyclobutane-1-carboxylic acid], in data set [1], the AUC(0-t) is 517 µg·h/mL and the Cmax came out at 41900 ng/mL. In data set [2], the viability at 4 days, 0.01 µM is 28%; the viability at 4 days, 0.1 µM was 9%; the viability at 4 days, 1 µM is 0%.

For the molecule `CC(C)C1=C2[C@H]3CC[C@@H]4[C@@]5(C)CC[C@H](OC(=O)[C@H]6C[C@@H](C(=O)O)C6(C)C)C(C)(C)[C@@H]5CC[C@@]4(C)[C@]3(C)CC[C@@]2(NC(=O)C(C)(C)NC(=O)CN2CCCCC2)CC1=O` [Example 10, (1R,3S)-3-((((3aR,5aR,5bR,7aR,9S,11aR,11bR,13aS)-1-isopropyl-5a,5b,8,8,11a-pentamethyl-3a-(2-methyl-2-(2-(piperidin-1-yl)acetamido)propan amido)-2-oxo-3,3a,4,5,5a,5b,6,7,7a,8,9,10,11,11a,11b,12,13,13a-octadecahydro-2H-cyclopenta[a]chrysen-9-yl)oxy)carbonyl)-2,2-dimethylcyclobutane-1-carboxylic acid], in data set [1], the AUC(0-t) was found to be 69.8 µg·h/mL and the Cmax turned out to be 9790 ng/mL. Also, in data set [2], the viability at 4 days, 0.01 µM came out at 67%; the viability at 4 days, 0.1 µM came out at 1%; the viability at 4 days, 1 µM is 0%.

In the case of `CC(C)C1=C2[C@H]3CC[C@@H]4[C@@]5(C)CC[C@H](OC(=O)[C@H]6C[C@@H](C(=O)O)C6(C)C)C(C)(C)[C@@H]5CC[C@@]4(C)[C@]3(C)CC[C@@]2(NC(=O)C(C)(C)NC(=O)c2ccc3[nH]cnc3c2)CC1=O` [Example 12, (1R,3S)-3-((((3aR,5aR,5bR,7aR,9S,11aR,11bR,13aS)-3a-(2-(1H-benzo[d]imidazole-5-carboxamido)-2-methylpropanamido)-1-isopropyl-5a,5b,8,8,11a-pentamethyl-2-oxo-3,3a,4,5,5a,5b,6,7,7a,8,9,10,11,11a,11b,12,13,13a-octadecahydro-2H-cyclopenta[a]chrysen-9-yl)oxy)carbonyl)-2,2-dimethylcyclobutane-1-carboxylic acid], in data set [1], the AUC(0-t) is 61.3 µg·h/mL and the Cmax was found to be 8540 ng/mL. Besides, in data set [2], the viability at 4 days, 0.01 µM was 42%; the viability at 4 days, 0.1 µM came to 7%; the viability at 4 days, 1 µM was found to be 3%.

In the case of `Cc1ccc(-c2nc3cc(C(=O)NC(C)(C)C(=O)N[C@@]45CC[C@]6(C)[C@H](CC[C@@H]7[C@@]8(C)CC[C@H](OC(=O)[C@H]9C[C@@H](C(=O)O)C9(C)C)C(C)(C)[C@@H]8CC[C@]76C)C4=C(C(C)C)C(=O)C5)ccc3[nH]2)cn1` [Example 13, (1R,3S)-3-((((3aR,5aR,5bR,7aR,9S,11aR,11bR,13aS)-1-isopropyl-5a,5b,8,8,11a-pentamethyl-3a-(2-methyl-2-(2-(6-methylpyridin-3-yl)-1H-benzo[d]imidazole-5-carboxamido)propanamido)-2-oxo-3,3a,4,5,5a,5b,6,7,7a,8,9,10,11,11a,11b,12, 13,13a-octadecahydro-2H-cyclopenta[a]chrysen-9-yl)oxy)carbonyl)-2,2-dimethylcyclobutane-1-carboxylic acid], in data set [1], the AUC(0-t) was determined as 18.2 µg·h/mL and the Cmax is 2720 ng/mL. In data set [2], this molecule registered a viability at 4 days, 0.01 µM of 45%; a viability at 4 days, 0.1 µM of 10%; a viability at 4 days, 1 µM of 4%.

In the case of `Cc1nc(C)c(C(=O)NC(C)(C)C(=O)N[C@@]23CC[C@]4(C)[C@H](CC[C@@H]5[C@@]6(C)CC[C@H](OC(=O)[C@H]7C[C@@H](C(=O)O)C7(C)C)C(C)(C)[C@@H]6CC[C@]54C)C2=C(C(C)C)C(=O)C3)s1` [Example 14, (1R,3S)-3-((((3aR,5aR,5bR,7aR,9S,11aR,11bR,13aS)-3a-(2-(2,4-dimethylthiazole-5-carboxamido)-2-methylpropanamido)-1-isopropyl-5a,5b,8,8,11a-pentamethyl-2-oxo-3,3a,4,5,5a,5b,6,7,7a,8,9,10,11,11a,11b,12,13,13a-octadecahydro-2H-cyclopenta[a]chrysen-9-yl)oxy)carbonyl)-2,2-dimethylcyclobutane-1-carboxylic acid], in data set [1], the AUC(0-t) turned out to be 377 µg·h/mL and the Cmax was found to be 26800 ng/mL. In addition, in data set [2], the viability at 4 days, 0.01 µM was 44%; the viability at 4 days, 0.1 µM was determined as 8%; the viability at 4 days, 1 µM turned out to be 2%.

These data come from patent publication US20170008921A1, “C-3 NOVEL TRITERPENONE WITH C-28 REVERSE AMIDE DERIVATIVES AS HIV INHIBITORS” (HETERO RESEARCH FOUNDATION, priority 2015, published 2017).
